Measurements as given in the supplement of paper PMC6965134.
± gives the standard deviation of the averaged measurements.

Assay: TIMS collisional cross section (CCS, N2) of the lipid ion; higher = larger ion cross section
Conditions: ionization mode: positive, one isomer drawn

CCCCCC/C=C/CCCCCCCCCC(=O)OC[C@@H](COC(=O)CCCCCCCCCCCCCCC)OC(=O)CCCCCCCCCCCCCCC [TG 16:0_16:0_18:1] (ion (formula + adduct): [C53H100O6+NH4] 1+)
TIMS collisional cross section (sample type: HeLa): 318.75 ± 0.21 Å² | TIMS collisional cross section (sample type: plasma): 318.4 Å²

CCCCCCCCC/C=C\CCCCCCCC(=O)OC[C@@H](COC(=O)CCCCCCCCCCCCCCC)OC(=O)CCCCCCCCCCCCCCC [TG 16:0_16:0_19:1] (ion (formula + adduct): [C54H102O6+NH4] 1+)
TIMS collisional cross section (sample type: HeLa): 321.5 Å²

CCCCCCCC/C=C\CCCCCCCCCC(=O)OC[C@@H](COC(=O)CCCCCCCCCCCCCCC)OC(=O)CCCCCCCCCCCCCCC [TG 16:0_16:0_20:1] (ion (formula + adduct): [C55H104O6+NH4] 1+)
TIMS collisional cross section (sample type: HeLa): 324.7 Å²

CCCCC/C=C\C/C=C\C/C=C\C/C=C\CCCC(=O)OC[C@@H](COC(=O)CCCCCCCCCCCCCCC)OC(=O)CCCCCCCCCCCCCCC [TG 16:0_16:0_20:4] (ion (formula + adduct): [C55H98O6+NH4] 1+)
TIMS collisional cross section (sample type: HeLa): 320.5 Å²

CC/C=C\C/C=C\C/C=C\C/C=C\C/C=C\CCCC(=O)OC[C@@H](COC(=O)CCCCCCCCCCCCCCC)OC(=O)CCCCCCCCCCCCCCC [TG 16:0_16:0_20:5] (ion (formula + adduct): [C55H96O6+Na] 1+)
TIMS collisional cross section (sample type: Liver): 314.5 Å²

CC/C=C\C/C=C\C/C=C\C/C=C\C/C=C\C/C=C\CCC(=O)OC[C@@H](COC(=O)CCCCCCCCCCCCCCC)OC(=O)CCCCCCCCCCCCCCC [TG 16:0_16:0_22:6] (ion (formula + adduct): [C57H98O6+NH4] 1+)
TIMS collisional cross section (sample type: HeLa): 324 Å²

CCCCCC/C=C\CCCCCCCC(=O)OC[C@@H](COC(=O)CCCCCCCCCCCCCCC)OC(=O)CCCCCCC/C=C\CCCCCC [TG 16:0_16:1_16:1] (ion (formula + adduct): [C51H94O6+NH4] 1+)
TIMS collisional cross section (sample type: Liver): 310.2 Å²

CCCCCC/C=C\CCCCCCCC(=O)O[C@H](COC(=O)CCCCCCCCCCCCCCC)COC(=O)CCCCCCCCCCCCCCCC [TG 16:0_16:1_17:0] (ion (formula + adduct): [C52H98O6+NH4] 1+)
TIMS collisional cross section (sample type: HeLa): 315.8 Å²

CCCCCC/C=C\CCCCCCCC(=O)O[C@@H](COC(=O)CCCCCCC/C=C\CCCCCCC)COC(=O)CCCCCCCCCCCCCCC [TG 16:0_16:1_17:1] (ion (formula + adduct): [C52H96O6+NH4] 1+)
TIMS collisional cross section (sample type: plasma): 313.2 Å²

CCCCCC/C=C\CCCCCCCC(=O)O[C@@H](COC(=O)CCCCCCC/C=C\CCCCCCCC)COC(=O)CCCCCCCCCCCCCCC [TG 16:0_16:1_18:1] (ion (formula + adduct): [C53H98O6+NH4] 1+)
TIMS collisional cross section (sample type: HeLa): 315.9 Å² | TIMS collisional cross section (sample type: Liver): 315.95 ± 0.53 Å² | TIMS collisional cross section (sample type: plasma): 315.8 ± 0.27 Å²

CCCCC/C=C\C/C=C\CCCCCCCC(=O)OC[C@@H](COC(=O)CCCCCCCCCCCCCCC)OC(=O)CCCCCCC/C=C\CCCCCC [TG 16:0_16:1_18:2] (ion (formula + adduct): [C53H96O6+NH4] 1+)
TIMS collisional cross section (sample type: HeLa): 314.4 Å² | TIMS collisional cross section (sample type: Liver): 313.45 ± 0.55 Å² | TIMS collisional cross section (sample type: plasma): 313.6 ± 0.44 Å²

CC/C=C\C/C=C\C/C=C\C/C=C\C/C=C\CCCCCC(=O)OC[C@@H](COC(=O)CCCCCCCCCCCCCCC)OC(=O)CCCCCCC/C=C\CCCCCC [TG 16:0_16:1_22:5] (ion (formula + adduct): [C57H98O6+NH4] 1+)
TIMS collisional cross section (sample type: HeLa): 321.9 Å²

CC/C=C\C/C=C\C/C=C\C/C=C\C/C=C\C/C=C\CCC(=O)OC[C@@H](COC(=O)CCCCCCCCCCCCCCC)OC(=O)CCCCCCC/C=C\CCCCCC [TG 16:0_16:1_22:6] (ion (formula + adduct): [C57H96O6+NH4] 1+)
TIMS collisional cross section (sample type: HeLa): 321.4 Å²

CCCCCCC/C=C\CCCCCCCC(=O)OC[C@@H](COC(=O)CCCCCCCCCCCCCCC)OC(=O)CCCCCCCCCCCCCCCC [TG 16:0_17:0_17:1] (ion (formula + adduct): [C53H100O6+NH4] 1+)
TIMS collisional cross section (sample type: Liver): 317.9 Å²

CCCCCCCCCCCCCCCCCC(=O)OC[C@@H](COC(=O)CCCCCCCCCCCCCCC)OC(=O)CCCCCCCCCCCCCCCC [TG 16:0_17:0_18:0] (ion (formula + adduct): [C54H104O6+NH4] 1+)
TIMS collisional cross section (sample type: HeLa): 323.3 Å² | TIMS collisional cross section (sample type: Liver): 323.6 Å² | TIMS collisional cross section (sample type: plasma): 323.4 Å²

CCCCCCCC/C=C\CCCCCCCC(=O)OC[C@@H](COC(=O)CCCCCCCCCCCCCCC)OC(=O)CCCCCCCCCCCCCCCC [TG 16:0_17:0_18:1] (ion (formula + adduct): [C54H102O6+NH4] 1+)
TIMS collisional cross section (sample type: HeLa): 321.9 Å² | TIMS collisional cross section (sample type: Liver): 321.6 Å² | TIMS collisional cross section (sample type: plasma): 321.6 Å²

CCCCCCCCCCCCCCCCCCCC(=O)OC[C@@H](COC(=O)CCCCCCCCCCCCCCC)OC(=O)CCCCCCCCCCCCCCCC [TG 16:0_17:0_20:0] (ion (formula + adduct): [C56H108O6+NH4] 1+)
TIMS collisional cross section (sample type: HeLa): 328.6 Å²

CCCCCCCCCCCCCCCCCCCCCC(=O)OC[C@@H](COC(=O)CCCCCCCCCCCCCCC)OC(=O)CCCCCCCCCCCCCCCC [TG 16:0_17:0_22:0] (ion (formula + adduct): [C58H112O6+NH4] 1+)
TIMS collisional cross section (sample type: Liver): 335 Å² | TIMS collisional cross section (sample type: plasma): 334.9 ± 0.42 Å²

CCCCCCCC/C=C\CCCCCCCCCCCC(=O)OC[C@@H](COC(=O)CCCCCCCCCCCCCCC)OC(=O)CCCCCCCCCCCCCCCC [TG 16:0_17:0_22:1] (ion (formula + adduct): [C58H110O6+NH4] 1+)
TIMS collisional cross section (sample type: HeLa): 332.9 Å²

CCCCCCC/C=C\CCCCCCCC(=O)O[C@@H](COC(=O)CCCCCCC/C=C\CCCCCCCC)COC(=O)CCCCCCCCCCCCCCC [TG 16:0_17:1_18:1] (ion (formula + adduct): [C54H100O6+NH4] 1+)
TIMS collisional cross section (sample type: HeLa): 319.4 Å² | TIMS collisional cross section (sample type: Liver): 319.35 ± 0.21 Å² | TIMS collisional cross section (sample type: plasma): 319.3 Å²

CCCCC/C=C\C/C=C\CCCCCCCC(=O)OC[C@@H](COC(=O)CCCCCCCCCCCCCCC)OC(=O)CCCCCCC/C=C\CCCCCCC [TG 16:0_17:1_18:2] (ion (formula + adduct): [C54H98O6+NH4] 1+)
TIMS collisional cross section (sample type: Liver): 316 Å² | TIMS collisional cross section (sample type: plasma): 317.8 Å²

CCCCC/C=C\C/C=C\C/C=C\C/C=C\CCCC(=O)OC[C@@H](COC(=O)CCCCCCCCCCCCCCC)OC(=O)CCCCCCC/C=C\CCCCCCC [TG 16:0_17:1_20:4] (ion (formula + adduct): [C56H98O6+NH4] 1+)
TIMS collisional cross section (sample type: HeLa): 321.4 Å²

CC/C=C\C/C=C\C/C=C\C/C=C\C/C=C\CCCCCC(=O)OC[C@@H](COC(=O)CCCCCCCCCCCCCCC)OC(=O)CCCCCCC/C=C\CCCCCCC [TG 16:0_17:1_22:5] (ion (formula + adduct): [C58H100O6+NH4] 1+)
TIMS collisional cross section (sample type: HeLa): 325.4 Å²

CC/C=C\C/C=C\C/C=C\C/C=C\C/C=C\C/C=C\CCC(=O)OC[C@@H](COC(=O)CCCCCCCCCCCCCCC)OC(=O)CCCCCCC/C=C\CCCCCCC [TG 16:0_17:1_22:6] (ion (formula + adduct): [C58H98O6+NH4] 1+)
TIMS collisional cross section (sample type: HeLa): 324.8 Å²
